Experiments:
[1] = hepatotoxicity of AChE inhibitors such as tacrine; cited from earlier work
animal models = settings: cited from earlier work
[2] = tested on: Alzheimer's disease patients; settings: cited from earlier work
mAChR M4 = target: T1, mAChR M4 (Homo sapiens, UniProt P08173); experiment: mAChR M4 cell-based functional assay (calcium mobilization, potentiation of EC20 acetylcholine response); settings: for Emax at 30 µM: % ACh maximum at 30 μM; for EC50: mAChR M4 cell-based functional assay, >10,000 estimated for low potency compounds without plateau, read-out: EC50
T1 construct: expressed in transfected cells; host or cells: CHO-K1 cells stably transfected with M4 cDNA and chimeric G-protein Gqi5
T1 sequence (P08173 1-479): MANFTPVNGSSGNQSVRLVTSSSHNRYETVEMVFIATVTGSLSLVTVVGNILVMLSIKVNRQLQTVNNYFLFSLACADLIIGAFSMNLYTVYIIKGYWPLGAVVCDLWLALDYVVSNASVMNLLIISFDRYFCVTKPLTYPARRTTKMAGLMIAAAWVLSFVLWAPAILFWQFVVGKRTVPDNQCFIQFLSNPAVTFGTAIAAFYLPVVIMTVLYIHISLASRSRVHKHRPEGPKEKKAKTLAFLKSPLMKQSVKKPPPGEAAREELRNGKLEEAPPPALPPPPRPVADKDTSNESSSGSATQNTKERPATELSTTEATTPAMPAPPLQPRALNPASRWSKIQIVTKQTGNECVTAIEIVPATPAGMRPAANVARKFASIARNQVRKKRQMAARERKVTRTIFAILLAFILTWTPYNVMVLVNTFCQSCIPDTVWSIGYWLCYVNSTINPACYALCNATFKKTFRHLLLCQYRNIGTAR

Structure (SMILES)	Emax at 30 µM (mAChR M4) [%]	EC50 (mAChR M4) [nM]	further results
Nc1c2c(nc3ccccc13)CCCC2 [tacrine]			elevated liver transaminases observed in patients [1]: about 30 % of patients
CCCCCCOc1nsnc1C1=CCCN(C)C1 [xanomeline]			catalepsy in animal models (animal models; in vivo): without causing catalepsy; activity in animal models with similar profiles to known antipsychotic drugs (animal models; muscarinic agonist, Bymaster 1998, 1999, Shannon 1999, 2000): active in animal models; psychotic behavioral symptoms such as delusions, suspiciousness, vocal outbursts, and hallucinations ([2]; Bodick 1997): reduce psychotic behavioral symptoms; treatment induced side effects [2]: gastrointestinal effects
Cc1nnc2sc(C(=O)NCc3cccc(OC(F)(F)F)c3)c(N)c2c1C [Example B410]	53	200	
Cc1nnc2sc(C(=O)NC3CN(C(=O)N(C)c4ccccc4)C3)c(N)c2c1C [Example B423]	59	53	
Cc1nnc2sc(C(=O)N3CCC(NS(=O)(=O)c4cncn4C)C3)c(N)c2c1C (stereo not drawn) [Example B202]	69	3800	
COC1(c2ccc(Cl)cc2)CN(C(=O)c2sc3nnc(C)c(C)c3c2N)C1 [Example B314]	49	2800	
Cc1nnc2sc(C(=O)NC3CCN(S(=O)(=O)c4ccc(OC(F)(F)F)cc4)C3)c(N)c2c1C (stereo not drawn) [Example B245]	73	1200	
Cc1nnc2sc(C(=O)NC3CN(c4ncc(-c5ccccc5)s4)C3)c(N)c2c1C [Example B426]	67	440	
Cc1nnc2sc(C(=O)N3CC(N)(c4ccccc4)C3)c(N)c2c1C [Example B306]	51	1100	
COC(=O)N1CC(NC(=O)c2sc3nnc(C)c(C)c3c2N)C1 [Example B153]	83	230	
COc1cccc(C(=O)N2CCC(NC(=O)c3sc4nnc(C)c(C)c4c3N)C2)c1 (stereo not drawn) [Example B231]	78	230	
Cc1cc(-c2ccc(CNC(=O)c3sc4nnc(C)c(C)c4c3N)cc2)cnc1Cl [Example B458]	82	32	
Cc1nnc2sc(C(=O)NCc3nccs3)c(N)c2c1C [Example B11]	82	1500	
Cc1nnc2sc(C(=O)NCc3ccc(OCF)cc3)c(N)c2c1C [Example B411]	82	53	
CC(=O)NC1CN(C(=O)c2sc3nnc(C)c(C)c3c2N)C1 [Example B157]	32	> 10000	
Cc1nnc2sc(C(=O)N3CC(NCc4cccnc4)C3)c(N)c2c1C [Example B62]	34	> 10000	

Structure (SMILES)	Emax at 30 µM (mAChR M4) [%]	EC50 (mAChR M4) [nM]	further results
Nc1c(C(=O)NCc2ccncc2)sc2nnc(-c3ccccc3)c(-c3ccccc3)c12 [Example B39]	40	> 10000	
Cc1nnc2sc(C(=O)NC3CCN(C(=O)C4CCCCC4)C3)c(N)c2c1C (stereo not drawn) [Example B226]	84	430	
Cc1nnc2sc(C(=O)NCc3ccc(S(=O)(=O)C(C)(C)C(F)(F)F)cc3)c(N)c2c1C [Example B108]	61	44	
Cc1nnc2sc(C(=O)N[C@@H]3CCN(c4ccccc4)C3)c(N)c2c1C [Example B192]	51	1800	
Cc1nnc2sc(C(=O)NCc3ccc(S(=O)(=O)C(F)F)cc3Cl)c(N)c2c1C [Example B507]	66	510	
Cc1nnc2sc(C(=O)NCc3ccc4c(c3)OC(F)(F)O4)c(N)c2c1C [Example B42]	76	26	
Cc1nnc2sc(C(=O)NC3CCN(C(=O)Cc4ccccc4)C3)c(N)c2c1C (stereo not drawn) [Example B235]	72	360	
Cc1nnc2sc(C(=O)NCc3ccc4ccccc4c3)c(N)c2c1C [Example B86]	62	80	
Cc1nnc2sc(C(=O)NCc3cc(F)c(F)cc3F)c(N)c2c1C [Example B45]	71	45	
Cc1nnc2sc(C(=O)NC3CCN(C(=O)c4cccs4)C3)c(N)c2c1C (stereo not drawn) [Example B200]	74	91	
Cc1nnc2sc(C(=O)NCc3ccc(C(C)S(C)(=O)=O)cc3)c(N)c2c1C (stereo not drawn) [Example B104]	63	150	
Cc1nnc2sc(C(=O)NC3CCCCC3)c(N)c2c1C [Example B97]	75	1500	
Cc1nnc2sc(C(=O)NC3CN(C(=O)Oc4ccccc4)C3)c(N)c2c1C [Example B151]	57	9.5	
Cc1nnc2sc(C(=O)NC3CCN(C(=O)c4ccc(F)cc4F)C3)c(N)c2c1C (stereo not drawn) [Example B228]	81	350	
Cc1nnc2sc(C(=O)NCCNC(=O)c3ccncc3)c(N)c2c1C [Example B364]	49	3900	

Reference: patent publication US9868746B2, “Substituted 5-aminothieno[2,3-C]pyridazine-6-carboxamide analogs as positive allosteric modulators of the muscarinic acetylcholine receptor M4” (Vanderbilt University, priority 2012, dated 2018)
